Source: ChEMBL document CHEMBL4340576, “Synthesis of oxadiazole-coupled-thiadiazole derivatives as a potent β-glucuronidase inhibitors and their molecular docking study” (Bioorg Med Chem, 2019)

biological target: T1, Beta-glucuronidase (Homo sapiens, UniProt P08236)
T1 sequence (P08236 whole entry): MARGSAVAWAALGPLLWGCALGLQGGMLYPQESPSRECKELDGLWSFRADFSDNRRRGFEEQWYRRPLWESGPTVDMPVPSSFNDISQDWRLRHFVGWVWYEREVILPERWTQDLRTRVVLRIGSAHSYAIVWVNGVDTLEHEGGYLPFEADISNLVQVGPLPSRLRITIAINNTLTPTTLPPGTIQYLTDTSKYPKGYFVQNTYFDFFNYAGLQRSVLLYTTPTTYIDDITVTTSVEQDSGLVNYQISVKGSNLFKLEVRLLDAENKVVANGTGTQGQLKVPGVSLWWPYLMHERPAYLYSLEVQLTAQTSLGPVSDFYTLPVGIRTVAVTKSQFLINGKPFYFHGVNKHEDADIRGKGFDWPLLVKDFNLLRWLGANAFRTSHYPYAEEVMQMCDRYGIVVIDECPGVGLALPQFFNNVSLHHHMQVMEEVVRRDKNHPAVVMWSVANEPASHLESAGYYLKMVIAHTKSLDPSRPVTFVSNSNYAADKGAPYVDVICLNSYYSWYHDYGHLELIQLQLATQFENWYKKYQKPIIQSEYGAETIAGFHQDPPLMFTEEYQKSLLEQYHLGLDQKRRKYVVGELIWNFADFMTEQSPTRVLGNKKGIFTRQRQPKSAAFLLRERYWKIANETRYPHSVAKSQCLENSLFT
Description: Inhibition of human beta-glucuronidase pre-incubated for 30 mins before p-nitrophenyl-beta-D-glucuronide substrate addition by spectrophotometry

IC50, Not Active:
COc1cc(O)ccc1-c1nnc(-c2ccc(-c3nnc(-c4ccncc4)s3)cc2)o1, COc1cc(O)ccc1-c1nnc(-c2ccc(-c3nnc(-c4cccnc4)s3)cc2)o1, COc1cc(O)ccc1-c1nnc(-c2ccc(-c3nnc(-c4cccc(C)c4)s3)cc2)o1, COc1cc(O)ccc1-c1nnc(-c2ccc(-c3nnc(-c4cccc([N+](=O)[O-])c4)s3)cc2)o1
